The test system of data set [1] is CD206 expression in RAW264.7 cells. The data set can be described thus: Flow cytometry of CD206 in IL-4/IL-13 stimulated RAW264.7. The data set is classed as cell-based, mouse. As to conditions: RAW264.7, IL-4/IL-13, 48 h. The source says:
A previous study has reported that MK2 fostered M2‐like polarization of TAMs, driving a protumor and proangiogenic phenotype which in turn accelerates tumor progression.[21] We thus assessed the influence of compound 11 on macrophage polarization and function. Our experiments used human THP‐1 monocyte induced macrophages, mouse RAW264.7 macrophages, and mouse bone marrow‐derived macrophages (BMDM). These cells were induced into M2‐like macrophages using the classic IL‐4 and IL‐13 stimuli.
In the in vitro analysis, cells were harvested, stained with surface antibodies, and subsequently fixed and permeabilized using IC Buffer following manufacturer's guidelines. Antibodies targeting intracellular molecules were used for further staining as cells were incubated for an additional 30 min at 4°C. These cells were then filtered using a 300‐mesh cell sieve prior to analysis via CytoFLEX (Beckman Coulter Life Sciences).
Figure S3 Inhibition of pro-tumorigenic M2-like polarization in macrophages by compound 11. (A) Illustrates the treatment effects on various macrophage cells using Western blot analysis post IL-4/IL-13 exposure (30 minutes or the specified time period). (B) Examines CD206 expression in RAW264.7 cells via flow cytometry post 48hours treatment of compound 11 and IL-4/IL-13. […] IL-4/IL-13 (20 ng/mL) served as the stimulation control, while untreated cells were the baseline control. […]
For orientation: Flow cytometry measures light scatter and fluorescence of single cells or particles in a stream.

Data set [2] is described as follows: Cytotoxicity assays, summary over all cell lines. The class given is cell-based. The settings on record: range over three normal and six tumor cell lines. The source says:
MK2, as a pivotal regulator of the well‐acknowledged p38 inflammation signaling pathway, is increasingly recognized for its critical role in the initiation and progression of cancer. Through an analysis of the clinical data from the TCGA database, we found the significant impact of MK2 on cancer. […] Moreover, macrophages are abundant in cancer, and such abundance correlates with poor prognosis in most malignancie.[17], [18], [19], [20] […] Additionally, the knockdown of MK2 using specific siRNA in macrophages also led to the downregulation of M2 markers. […] Moreover, compound 11’s effect on macrophages extended to inhibition of typical proinflammatory cytokines and crucial factors in inflammation‐driven tumorigenesis. […] These findings bolster the rationale for pursuing the development and application of MK2 inhibitors in the treatment of inflammation‐driven or macrophage‐rich cancers.
Cells was plated into 96-well plates and incubated overnight prior to introduction of varying concentrations of compounds or control solvent. Following a 72-hour exposure period, cell viability was determined using a Cell Counting Kit-8 assay (Life-iLab, China). Dose-response curves were fitted using a four-parameter method facilitated by SoftMax Pro, which was subsequently used for the computation of IC50 values.

The target in another data set is MK2 (Homo sapiens, UniProt P49137). The data set can be described thus: MK2 kinase inhibition assay (ADP-Glo). The data set is classed as biochemical. As to conditions: mean ± SD of two independent tests. The procedure:
(§1) To assess the impact of various compounds on MK2 kinase activity, we utilized the ADP‐Glo Assay Kit (Promega) following the manufacturer's instructions. Luminescence measurements were taken using a SpectraMax Paradigm reader. The inhibition percentage was calculated using the following formula: ((specific signalDMSO control − specific signal inhibitor)/(specific signalDMSO control)) × 100%. The IC50 values were determined employing dose–response curve fitting via Prism (Graph Pad).
(In general: ADP-Glo first removes unused ATP, then detects ADP through luciferase.)

The target in another data set is T1, p70S6Kb (Homo sapiens, UniProt Q9UBS0).
T1 construct: purchased Eurofins (Celle Lévescault)
Description: Eurofins kinase selectivity profile, p70S6Kb. The class given is biochemical. The procedure: (§2) Subsequently, to ascertain whether the high potency of compound 11 was specific for MK2, an additional 380 human recombinant protein kinases were screened.
as §1, with “Pad). Additionally, Eurofins company (Celle Lévescault) conducted the analysis on compound 11’s inhibitory activity against 380 other human recombinant kinases at various concentrations.” for “Pad).”

The target in another data set is T2, MK5 (Homo sapiens, UniProt Q8IW41).
T2 construct: purchased Eurofins (Celle Lévescault)
T2 sequence (Q8IW41 1-473): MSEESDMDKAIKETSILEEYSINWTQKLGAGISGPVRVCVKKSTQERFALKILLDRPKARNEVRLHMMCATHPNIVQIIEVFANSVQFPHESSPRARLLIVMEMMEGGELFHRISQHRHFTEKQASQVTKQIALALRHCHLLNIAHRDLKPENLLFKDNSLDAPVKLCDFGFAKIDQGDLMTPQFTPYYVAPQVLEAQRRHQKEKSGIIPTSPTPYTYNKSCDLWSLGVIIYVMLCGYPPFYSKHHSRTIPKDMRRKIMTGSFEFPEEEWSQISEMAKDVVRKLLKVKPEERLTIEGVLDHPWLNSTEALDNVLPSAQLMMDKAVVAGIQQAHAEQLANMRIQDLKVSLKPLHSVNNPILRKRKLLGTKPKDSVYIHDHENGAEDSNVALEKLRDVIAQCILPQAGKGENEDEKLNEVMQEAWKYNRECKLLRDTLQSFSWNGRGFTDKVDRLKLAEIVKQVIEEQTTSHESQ
The data set can be described thus: Eurofins kinase selectivity profile, MK5. The class given is biochemical. On the procedure: as §2
as §1, with “Pad). Additionally, Eurofins company (Celle Lévescault) conducted the analysis on compound 11’s inhibitory activity against 380 other human recombinant kinases at various concentrations.” for “Pad).”

1 molecule from PMC11233931, “Remodeling tumor‐associated macrophage for anti‐cancer effects by rational design of irreversible inhibition of mitogen‐activated protein kinase‐activated protein kinase 2” (MedComm, 2024) can be followed below.

Each structure is given as a SMILES string.

T1 sequence (Q9UBS0 whole entry): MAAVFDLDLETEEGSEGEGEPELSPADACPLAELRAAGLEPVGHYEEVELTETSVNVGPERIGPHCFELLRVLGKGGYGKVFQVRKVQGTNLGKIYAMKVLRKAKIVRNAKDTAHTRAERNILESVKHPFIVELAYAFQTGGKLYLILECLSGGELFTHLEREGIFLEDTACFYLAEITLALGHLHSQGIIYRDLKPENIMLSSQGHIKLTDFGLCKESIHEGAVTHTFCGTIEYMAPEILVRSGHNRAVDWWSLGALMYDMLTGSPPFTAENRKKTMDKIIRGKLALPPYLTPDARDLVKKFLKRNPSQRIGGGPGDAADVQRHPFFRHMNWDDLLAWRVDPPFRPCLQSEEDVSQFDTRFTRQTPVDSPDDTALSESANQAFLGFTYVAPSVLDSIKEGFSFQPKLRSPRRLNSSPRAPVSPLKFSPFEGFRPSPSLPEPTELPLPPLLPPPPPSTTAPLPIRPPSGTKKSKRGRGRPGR
Sequence of MK2 (P49137 whole entry): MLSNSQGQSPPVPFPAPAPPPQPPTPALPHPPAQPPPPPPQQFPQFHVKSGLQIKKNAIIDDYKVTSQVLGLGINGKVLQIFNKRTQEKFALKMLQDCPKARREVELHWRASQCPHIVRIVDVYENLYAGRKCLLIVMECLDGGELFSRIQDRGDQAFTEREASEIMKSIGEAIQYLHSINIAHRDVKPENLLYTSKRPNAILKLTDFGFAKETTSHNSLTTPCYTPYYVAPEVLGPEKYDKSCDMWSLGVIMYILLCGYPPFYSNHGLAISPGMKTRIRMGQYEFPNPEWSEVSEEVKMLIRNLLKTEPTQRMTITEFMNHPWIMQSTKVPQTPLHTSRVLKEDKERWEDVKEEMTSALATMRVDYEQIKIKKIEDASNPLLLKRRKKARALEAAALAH

Take `C=CC(=O)Nc1cc(-c2cc(-c3cc4c([nH]3)CCNC4=O)ccn2)ccc1OC(F)(F)F` [compound 11]: in data set [1], the “effect on CD206 expression” value is reported as “A similar result”. The concentration for half-maximal inhibition (IC50) – broadly, the concentration that gives 50% inhibition – at 72 h in data set [2] fell in the range of 30000 to 50000 nM. For the same molecule, the results for the IC50 on MK2, on p70S6Kb and on MK5 were 2.3 nM, over 1000 nM and over 100 nM, respectively. Also, the inhibition (commonly the drop in the measured response relative to a control, in per cent) at 0.01 µM was -9% at p70S6Kb (p70S6K(h), 10 nM, read-out: Inhibition rate) and 6% on MK5 (MAPKAP-K5/PRAK(h), 10 nM, read-out: Inhibition rate). In addition, the inhibition at 0.1 µM at p70S6Kb (p70S6K(h), 100 nM, read-out: Inhibition rate) is -16%; on MK5 (MAPKAP-K5/PRAK(h), 100 nM, read-out: Inhibition rate), 29%. Further, at p70S6Kb (p70S6K(h), 1000 nM, read-out: Inhibition rate), the inhibition at 1 µM is -6%. The inhibition at 0.001 µM on MK5 (MAPKAP-K5/PRAK(h), 1 nM, read-out: Inhibition rate) is -21%.
